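Briefly, cells in 96-well plates were exposed to five compound concentrations for 48 h, and endpoints were estimated by linear interpolation. At the GI50, growth is halved. TGI marks complete inhibition of growth.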 Where a SMILES comes first, the peptide text is derived from it. Bridges are numbered along the chain shown (N, C = ends).
What was measured:
Test in all cases: inhibition of tumour cell growth, NCI panel, 48 h
NCI-H522 lung = tested on: NCI-H522 lung
SNB-19 CNS = tested on: SNB-19 CNS
BT-549 breast = tested on: BT-549 breast
IGROV1 ovarian = tested on: IGROV1 ovarian
HCT-15 colon = tested on: HCT-15 colon
SK-MEL-5 melanoma = tested on: SK-MEL-5 melanoma
COLO 205 colon = tested on: COLO 205 colon
MCF7 breast = tested on: MCF7 breast
SN12C renal = tested on: SN12C renal
U251 CNS = tested on: U251 CNS

COc1ccccc1-c1ccc2c(N)c(C(=O)c3ccc4c(c3)OCO4)sc2n1
GI50 (NCI-H522 lung): 4.32 µM | TGI (NCI-H522 lung): 19.7 µM | GI50 (SNB-19 CNS): 7.97 µM | TGI (SNB-19 CNS): 30.2 µM | GI50 (BT-549 breast): 7.21 µM | TGI (BT-549 breast): 30.2 µM | GI50 (IGROV1 ovarian): 7.93 µM | TGI (IGROV1 ovarian): 25.5 µM | GI50 (HCT-15 colon): 4.08 µM | TGI (HCT-15 colon): 53.6 µM | GI50 (SK-MEL-5 melanoma): 4.52 µM | TGI (SK-MEL-5 melanoma): 24.2 µM | GI50 (COLO 205 colon): 10 µM | TGI (COLO 205 colon): 31 µM | GI50 (MCF7 breast): 4.82 µM | TGI (MCF7 breast): 98.6 µM | GI50 (SN12C renal): 6.14 µM | TGI (SN12C renal): 24.5 µM

C=C1CCCC2OC(OC)CCC12 (stereo not drawn)
TGI (NCI-H522 lung): > 100 µM | TGI (SNB-19 CNS): > 100 µM | TGI (IGROV1 ovarian): > 100 µM | TGI (HCT-15 colon): > 100 µM | TGI (SK-MEL-5 melanoma): > 100 µM | TGI (COLO 205 colon): > 100 µM | TGI (U251 CNS): > 100 µM | TGI (SN12C renal): > 100 µM

CCCCCCCCC1C(C)c2c([nH]c3ccccc23)C2C(=O)N(c3ccccc3)C(=O)C21 (stereo not drawn)
TGI (IGROV1 ovarian): 36.2 µM | TGI (HCT-15 colon): 25.6 µM | TGI (SK-MEL-5 melanoma): 31.7 µM | TGI (U251 CNS): 22.9 µM | TGI (SN12C renal): 23.8 µM

CSC(=NC(=O)c1ccccc1)SCCSC(=NC(=O)c1ccccc1)SC
TGI (NCI-H522 lung): > 100 µM | TGI (SNB-19 CNS): > 100 µM | TGI (IGROV1 ovarian): > 100 µM | TGI (HCT-15 colon): > 100 µM | TGI (SK-MEL-5 melanoma): > 100 µM | TGI (COLO 205 colon): > 100 µM | TGI (U251 CNS): > 100 µM | TGI (SN12C renal): > 100 µM

Cn1c2ccccc2c2c(=O)n(CCCC(=O)NCCc3cnc[nH]3)c3c(-c4ccccc4)nnn3c21
GI50 (SNB-19 CNS): 11.8 µM | TGI (SNB-19 CNS): 24.1 µM | GI50 (HCT-15 colon): 14.6 µM | TGI (HCT-15 colon): 44.1 µM | GI50 (SK-MEL-5 melanoma): 9.09 µM | TGI (SK-MEL-5 melanoma): 17.2 µM | GI50 (COLO 205 colon): 8.51 µM | TGI (COLO 205 colon): 19.6 µM | GI50 (U251 CNS): 9.46 µM | TGI (U251 CNS): 18.4 µM | GI50 (MCF7 breast): 13 µM | TGI (MCF7 breast): 30.3 µM | GI50 (SN12C renal): 8.76 µM | TGI (SN12C renal): 18.7 µM

O=C(CO)CC(=O)C(=O)Nc1cccc(C(F)(F)F)c1
TGI (NCI-H522 lung): > 100 µM | TGI (SNB-19 CNS): > 100 µM | TGI (IGROV1 ovarian): > 100 µM | TGI (HCT-15 colon): > 100 µM | TGI (COLO 205 colon): > 100 µM | TGI (SN12C renal): > 100 µM

CCC1=CCC(P(=O)(c2ccccc2)c2ccccc2)CC1C (stereo not drawn)
TGI (NCI-H522 lung): 47.4 µM | TGI (SNB-19 CNS): > 100 µM | TGI (IGROV1 ovarian): > 100 µM | TGI (HCT-15 colon): > 100 µM | TGI (SK-MEL-5 melanoma): 70.8 µM | TGI (COLO 205 colon): > 100 µM | TGI (U251 CNS): > 100 µM | TGI (SN12C renal): > 100 µM

O=C(O)C1C2C=CC(O2)C1C(=O)NCc1ccncc1 (stereo not drawn)
TGI (NCI-H522 lung): > 100 µM | TGI (SNB-19 CNS): > 100 µM | TGI (IGROV1 ovarian): > 100 µM | TGI (SK-MEL-5 melanoma): > 100 µM | TGI (COLO 205 colon): > 100 µM | TGI (U251 CNS): > 100 µM | TGI (MCF7 breast): > 100 µM | TGI (SN12C renal): > 100 µM

CCc1cc2c(Nc3ccccc3)c3c(nc2s1)CCCC3
TGI (SNB-19 CNS): > 100 µM | TGI (IGROV1 ovarian): > 100 µM | TGI (HCT-15 colon): > 100 µM | TGI (SK-MEL-5 melanoma): > 100 µM | TGI (COLO 205 colon): > 100 µM | TGI (U251 CNS): > 100 µM | TGI (SN12C renal): > 100 µM

COc1ccc(C(=O)Nc2ccn(CCOC(=O)c3ccc(OC)cc3)c(=O)n2)cc1
TGI (NCI-H522 lung): > 100 µM | TGI (IGROV1 ovarian): > 100 µM | TGI (HCT-15 colon): > 100 µM | TGI (SK-MEL-5 melanoma): > 100 µM | TGI (COLO 205 colon): > 100 µM | TGI (U251 CNS): > 100 µM | TGI (SN12C renal): > 100 µM

CCC(C)C1NC(=O)C(CC(C)C)NC(=O)C(C(C)C)NC(=O)C2CSSCC(NC1=O)C(=O)N2 (stereo not drawn) (cyclo(CCVLI); disulfide 1-2; configuration not given here)
TGI (NCI-H522 lung): 0.355 µM | TGI (SNB-19 CNS): 0.344 µM | TGI (BT-549 breast): 0.369 µM | TGI (IGROV1 ovarian): 0.309 µM | TGI (HCT-15 colon): 7.12 µM | TGI (SK-MEL-5 melanoma): 0.293 µM | TGI (COLO 205 colon): 0.223 µM | TGI (U251 CNS): 0.149 µM | TGI (SN12C renal): 0.351 µM

O=C(O)CC(S)C(=O)O.[Li+].[Sb] (stereo not drawn)
GI50 (SNB-19 CNS): > 100 µM | TGI (SNB-19 CNS): > 100 µM | GI50 (BT-549 breast): > 100 µM | TGI (BT-549 breast): > 100 µM | GI50 (IGROV1 ovarian): > 100 µM | TGI (IGROV1 ovarian): > 100 µM | GI50 (HCT-15 colon): > 100 µM | TGI (HCT-15 colon): > 100 µM | GI50 (SK-MEL-5 melanoma): 13.7 µM | TGI (SK-MEL-5 melanoma): 29 µM | GI50 (U251 CNS): 39.9 µM | TGI (U251 CNS): > 100 µM | GI50 (SN12C renal): > 100 µM | TGI (SN12C renal): > 100 µM

CC(=O)OC(C)(C)C[N+](=O)[O-]
TGI (NCI-H522 lung): > 100 µM | TGI (SNB-19 CNS): > 100 µM | TGI (IGROV1 ovarian): > 100 µM | TGI (HCT-15 colon): > 100 µM | TGI (COLO 205 colon): > 100 µM | TGI (U251 CNS): > 100 µM | TGI (SN12C renal): > 100 µM

CCOP(=O)(OCC)C(NC(c1ccccc1)c1ccccc1)c1ccsc1 (stereo not drawn)
GI50 (NCI-H522 lung): 25.2 µM | TGI (NCI-H522 lung): 74.5 µM | GI50 (BT-549 breast): 27.5 µM | TGI (BT-549 breast): 52.3 µM | GI50 (IGROV1 ovarian): 37.6 µM | TGI (IGROV1 ovarian): > 100 µM | GI50 (HCT-15 colon): 16.1 µM | TGI (HCT-15 colon): 84.6 µM | GI50 (SK-MEL-5 melanoma): 18.4 µM | TGI (SK-MEL-5 melanoma): 35.1 µM | GI50 (MCF7 breast): 24.2 µM | TGI (MCF7 breast): > 100 µM | GI50 (SN12C renal): 16.7 µM | TGI (SN12C renal): 30.3 µM

COc1ccc2[nH]cc(C3(c4c[nH]c5ccc(OC)cc45)C(=O)Nc4ccc(Cl)cc43)c2c1
GI50 (SNB-19 CNS): 5.14 µM | TGI (SNB-19 CNS): > 100 µM | GI50 (BT-549 breast): 5.08 µM | TGI (BT-549 breast): 56.8 µM | GI50 (IGROV1 ovarian): 3.28 µM | TGI (IGROV1 ovarian): 21.2 µM | GI50 (HCT-15 colon): 7.09 µM | TGI (HCT-15 colon): > 100 µM | GI50 (SK-MEL-5 melanoma): 2.56 µM | TGI (SK-MEL-5 melanoma): 7.57 µM | GI50 (COLO 205 colon): 1.88 µM | TGI (COLO 205 colon): 3.53 µM | GI50 (U251 CNS): 2.88 µM | TGI (U251 CNS): 13.4 µM | GI50 (MCF7 breast): 3.12 µM | TGI (MCF7 breast): 42.8 µM | GI50 (SN12C renal): 4.34 µM | TGI (SN12C renal): 18.6 µM

CC(O)(c1ccc(OCCC[N+](C)(C)C)cc1)C(C)(O)c1ccc(OCCC[N+](C)(C)C)cc1 (stereo not drawn)
TGI (NCI-H522 lung): > 100 µM | TGI (SNB-19 CNS): > 100 µM | TGI (IGROV1 ovarian): > 100 µM | TGI (HCT-15 colon): > 100 µM | TGI (COLO 205 colon): > 100 µM | TGI (U251 CNS): > 100 µM | TGI (SN12C renal): > 100 µM

CC[C@@]1(O)C(=O)OCc2c1cc1n(c2=O)Cc2cc3cccc(N)c3nc2-1
GI50 (NCI-H522 lung): 3.92 µM | TGI (NCI-H522 lung): > 100 µM | GI50 (SNB-19 CNS): 5.77 µM | TGI (SNB-19 CNS): 50.3 µM | GI50 (IGROV1 ovarian): 11.5 µM | TGI (IGROV1 ovarian): 38.8 µM | GI50 (SK-MEL-5 melanoma): 8.75 µM | TGI (SK-MEL-5 melanoma): > 100 µM | GI50 (COLO 205 colon): 13.9 µM | TGI (COLO 205 colon): > 100 µM | GI50 (U251 CNS): 3.03 µM | TGI (U251 CNS): 18.8 µM | GI50 (SN12C renal): 3.58 µM | TGI (SN12C renal): > 100 µM

CN(C)c1ccc(/C=N/n2c(CCCCc3n[nH]c(=S)n3/N=C/c3ccc(N(C)C)cc3)n[nH]c2=S)cc1
GI50 (NCI-H522 lung): > 100 µM | TGI (NCI-H522 lung): > 100 µM | GI50 (SNB-19 CNS): > 100 µM | TGI (SNB-19 CNS): > 100 µM | GI50 (IGROV1 ovarian): > 100 µM | TGI (IGROV1 ovarian): > 100 µM | GI50 (HCT-15 colon): > 100 µM | TGI (HCT-15 colon): > 100 µM | GI50 (SK-MEL-5 melanoma): > 100 µM | TGI (SK-MEL-5 melanoma): > 100 µM | GI50 (COLO 205 colon): > 100 µM | TGI (COLO 205 colon): > 100 µM | GI50 (U251 CNS): 74 µM | TGI (U251 CNS): > 100 µM | GI50 (MCF7 breast): > 100 µM | TGI (MCF7 breast): > 100 µM | GI50 (SN12C renal): > 100 µM | TGI (SN12C renal): > 100 µM

COC(=O)/C=C(C)/C=C/c1c(C)c(C(C)=O)c(C)n1C
TGI (NCI-H522 lung): > 100 µM | TGI (SNB-19 CNS): > 100 µM | TGI (IGROV1 ovarian): > 100 µM | TGI (HCT-15 colon): > 100 µM | TGI (COLO 205 colon): > 100 µM | TGI (U251 CNS): > 100 µM | TGI (SN12C renal): > 100 µM

CN(C)c1ccc2cc3c(cc2c1)Oc1ccccc1N3.[Cl][Zn][Cl]
GI50 (NCI-H522 lung): 1.94 µM | TGI (NCI-H522 lung): 4.94 µM | GI50 (SNB-19 CNS): 20.6 µM | TGI (SNB-19 CNS): 52.2 µM | GI50 (BT-549 breast): 14.4 µM | TGI (BT-549 breast): 27.7 µM | GI50 (IGROV1 ovarian): 12.8 µM | TGI (IGROV1 ovarian): 33.8 µM | GI50 (HCT-15 colon): 2.24 µM | TGI (HCT-15 colon): 6.47 µM | GI50 (SK-MEL-5 melanoma): 3.16 µM | TGI (SK-MEL-5 melanoma): 11.9 µM | GI50 (MCF7 breast): 1.53 µM | TGI (MCF7 breast): 3.91 µM | GI50 (SN12C renal): 11.6 µM | TGI (SN12C renal): 63.9 µM
